Results on 77 molecules are retold here after ChEMBL document CHEMBL5712922, “Synergistic effects of type I PRMT and PARP inhibitors against non-small cell lung cancer cells” (Clin Epigenetics, 2021).

Where a name gives a salt, the structure may show the parent alone.

The test system of this assay is A549. As to the kind of experiment: Antiproliferative against human A549 cells assessed as viable cells pretreated with MS023 for 24 hrs followed by compound addition at 10 uM measured after for 24 hrs relative to control. The settings on record: A549, 24 h, read-out: Activity.
For `COc1cc2ncnc(Nc3ccc(O)c(Br)c3)c2cc1OC`, the viability at 10 µM came to 54.2%.
Take `Nc1nc(Nc2ccc(S(N)(=O)=O)cc2)nn1C(=O)c1c(F)cccc1F` [JNJ-7706621]: the viability at 10 µM was found to be 54.2%.
With `N[C@H]1C[C@@H]1c1ccc(-c2cccc(O)c2)cc1` the figure was 54.2%; with `CN(C)Cc1c(C(=O)NCCOc2ccc(C(=O)NO)cc2)oc2ccccc12` [ABEXINOSTAT], 54.2%.
With `CC(/C=C/C(=O)NO)=C\[C@@H](C)C(=O)c1ccc(N(C)C)cc1` [TRICHOSTATIN], the viability at 10 µM was 54.2%.
For the molecule `COc1cc(OC)c2c(=O)[nH]c(-c3cc(C)c(OCCO)c(C)c3)nc2c1` [APABETALONE], the viability at 10 µM worked out at 54.2%.
As to `Cc1cc(/N=N/c2ccc(S(=O)(=O)Nc3ccccn3)cc2)c(N)cc1O`, the viability at 10 µM stood at 54.2%.
Turning to `O=C(NC[C@H](O)CN1CCc2ccccc2C1)c1cc(NC2COC2)ncn1`, the viability at 10 µM came to 54.2%.
Then `O=C(NCC(=O)N1CCCC1)Nc1ccc2cnccc2c1`, with 54.2%.
As to `N[C@@H]1CCCN(c2c(/C=C3\SC(=O)NC3=O)cccc2-c2ccccc2)C1`, the viability at 10 µM is 54.2%.
With `C[C@@H]1CCN(C(=O)CC#N)C[C@@H]1N(C)c1ncnc2[nH]ccc12` [TOFACITINIB] the figure was 54.2%.
Regarding `Cn1c(/C=C/C(=O)NO)ccc1/C=C/C(=O)c1cccc(F)c1`, the viability at 10 µM was 54.2%.
With `COc1ccc(Cn2ccc3ccc(C(=O)NO)cc32)cc1`, the viability at 10 µM was determined as 54.2%.
Turning to `CCN(c1cc(C#CCN2CCOCC2)cc(C(=O)NCc2c(C)cc(C)[nH]c2=O)c1C)[C@H]1CC[C@H](N(C)CCOC)CC1`, the viability at 10 µM was determined as 54.2%.
For the molecule `CCS(=O)(=O)Nc1ccc2c(c1)/C(=C(/Nc1ccc(CN3CCCCC3)cc1)c1ccccc1)C(=O)N2` [HESPERADIN], the viability at 10 µM amounted to 54.2%.
For the molecule `CCOC(=O)Nc1cc(-c2ccc(C)c(NS(C)(=O)=O)c2)nn2c(C)nnc12`, the viability at 10 µM is 54.2%.
As to `O=C(O)C(O)C(O)C(=O)O` (configuration not stated) [TARTARIC ACID], the viability at 10 µM worked out at 54.2%.
With `O=c1ccc2ccc(O)c(O)c2o1` [DAPHNETIN] the figure was 54.2%; with `CCN(CC)C(=O)/C(C#N)=C/c1cc(O)c(O)c([N+](=O)[O-])c1` [ENTACAPONE], 54.2%; with `Cn1cc(-c2ccc(S(=O)(=O)n3ccc(/C=C/C(=O)Nc4ccccc4N)c3)cc2)cn1` [DOMATINOSTAT], 54.2%.
Turning to `CCS(=O)(=O)c1cccc(-c2cc(C(=O)NC3CCN(C)CC3)c(C)c3[nH]c4ncc(C)cc4c23)c1` [TAK-901], the viability at 10 µM turned out to be 54.2%.
For the molecule `N[C@H]1CC[C@H](N[C@@H]2C[C@H]2c2ccccc2)CC1`, the viability at 10 µM stood at 54.2%.
For `O=c1oc2c(O)c(O)cc3c(=O)oc4c(O)c(O)cc1c4c23` [ELLAGIC ACID], the viability at 10 µM is 54.2%.
As for `COc1cc2nc(N3CCCC3)nc(NCCCCCN3CCCC3)c2cc1OC`, the viability at 10 µM worked out at 54.2%.
`COc1cccc2c1C(=O)c1c(O)c3c(c(O)c1C2=O)C[C@@](O)(C(=O)CO)C[C@@H]3O[C@H]1C[C@H](N)[C@H](O[C@@H]2CCCCO2)[C@H](C)O1` [PIRARUBICIN]: the viability at 10 µM came to 54.2%.
Then `COc1cc(Nc2ncc3c(n2)-c2ccc(Cl)cc2C(c2c(F)cccc2OC)=NC3)ccc1C(=O)O` [ALISERTIB], with 54.2%; and `CC1COc2c(N3CCN(C)CC3)c(F)cc3c(=O)c(C(=O)O)cn1c23` (configuration not stated) [OFLOXACIN], with 54.2%; and `N#CC[C@@H](C1CCCC1)n1cc(-c2ncnc3[nH]ccc23)cn1`, with 54.2%.
Turning to `Cc1cc(Nc2nc(N[C@@H](C)c3ccc(F)cc3)c(C#N)cc2F)n[nH]1`, the viability at 10 µM stood at 54.2%.
With `CCCCN(Cc1ccc(C(=O)NO)cc1)C(=O)Nc1ccccc1` [NEXTURASTAT A], the viability at 10 µM is 54.2%.
With `O=C(Nc1cccc(Cl)c1)Nc1ncc(CCNc2ncnc3ccsc23)s1` [SNS-314 MESYLATE], the viability at 10 µM amounted to 54.2%.
With `CN(C)c1ccc(C(=O)NCCCCCCC(=O)NO)cc1` the figure was 54.2%; with `O=C(O)[C@H](Cc1c[nH]c2ccccc12)N1C(=O)c2ccccc2C1=O`, 54.2%.
On to `CCn1cc(C(=O)O)c(=O)c2cc(F)c(N3CCNCC3)cc21` [NORFLOXACIN], for which the viability at 10 µM amounted to 54.2%.
As for `Nc1cc(F)ccc1NC(=O)/C=C/c1cnn(C/C=C/c2ccccc2)c1`, the viability at 10 µM was 54.2%.
Regarding `Cc1cc(C)c(CNC(=O)c2cc(-c3ccc(N4CCN(C)CC4)nc3)cc3c2c(C)cn3C(C)C)c(=O)[nH]1`, the viability at 10 µM was 54.2%.
With `O=C(Nc1c[nH]nc1-c1nc2ccc(CN3CCOCC3)cc2[nH]1)NC1CC1` [AT-9283], the viability at 10 µM is 54.2%.
Then `CN(C)Cc1ccc(S(=O)(=O)n2ccc(/C=C/C(=O)NO)c2)cc1` [RESMINOSTAT], with 54.2%.
`CCCc1cc2c(N3CCN(C4=NCC(C)(C)S4)CC3)ncnc2s1`: the viability at 10 µM was 54.2%.
In the case of `COc1ccccc1S(=O)(=O)Nc1ccc2c(c1)CN(C)C(=O)N2`, the viability at 10 µM was determined as 54.2%.
Then `N#C/C(=C\c1ccc(O)c(O)c1)C(=O)NCc1ccccc1`, with 54.2%; and `Nc1ncn([C@@H]2O[C@H](CO)[C@@H](O)[C@H]2O)c(=O)n1` [AZACITIDINE], with 54.2%.
On to `NC(=O)c1ncn([C@@H]2O[C@H](CO)[C@@H](O)[C@H]2O)c1O` [MIZORIBINE], for which the viability at 10 µM amounted to 54.2%.
Consider `COc1cc2nc(N3CCCN(C)CC3)nc(NC3CCN(Cc4ccccc4)CC3)c2cc1OC`, for which the viability at 10 µM stood at 54.2%.
Consider `CCC(CC)n1ccc2c(C(=O)NCc3c(C)cc(C)[nH]c3=O)cc(C#N)cc21`, for which the viability at 10 µM was determined as 54.2%.
Consider `COc1cc2c(NC3CCN(CC4CCCCC4)CC3)nc(N3CCCN(C(C)C)CC3)nc2cc1OCCCN1CCCCC1`, for which the viability at 10 µM was found to be 54.2%.
With `CC(C)N(CCCNC(=O)Nc1ccc(C(C)(C)C)cc1)C[C@H]1O[C@@H](n2cc(Br)c3c(N)ncnc32)[C@H](O)[C@@H]1O`, the viability at 10 µM stood at 54.2%.
For the molecule `O=C(c1ccc(Cl)cc1Cl)n1nnc2ccccc21`, the viability at 10 µM amounted to 54.2%.
As to `Nc1ccccc1NC(=O)c1ccc(CNc2nccc(-c3cccnc3)n2)cc1` [MOCETINOSTAT], the viability at 10 µM was 54.2%.
For `O=C([C@@H](Cc1cccc(C(F)(F)F)c1)NS(=O)(=O)c1cc(F)c2c(c1)CCNC2)N1CCCC1`, the viability at 10 µM came to 54.2%.
Turning to `O=C(c1cncc(Br)c1)N1CCC(N2CCCC2)CC1`, the viability at 10 µM stood at 54.2%.
Take `CCN(CCO)CCCOc1ccc2c(Nc3cc(CC(=O)Nc4cccc(F)c4)[nH]n3)ncnc2c1` [DEFOSBARASERTIB]: the viability at 10 µM was 54.2%.
For `C#Cc1cccc(Nc2ncnc3cc(OC)c(OCCCCCCC(=O)NO)cc23)c1` [CUDC-101], the viability at 10 µM was 54.2%.
For the molecule `Clc1ccc(N/N=C(\c2ccccc2)c2ccccn2)nc1`, the viability at 10 µM was 54.2%.
With `N[C@@H]1C[C@H]1c1ccccc1` [TRANYLCYPROMINE HYDROCHLORIDE] the figure was 54.2%; with `COc1cc2c(cc1O)CC[C@@H]1[C@@H]2CC[C@]2(C)[C@@H](O)CC[C@@H]12` [2-METHOXYESTRADIOL], 54.2%; with `CN1CCc2c(c3ccccc3n2Cc2ccc(C(=O)NO)cc2)C1`, 54.2%.
As for `CC(NC(=O)c1ccccc1/N=C/c1c(O)ccc2ccccc12)c1ccccc1` (configuration not stated) [SIRTINOL], the viability at 10 µM is 54.2%.
As to `CCn1cc(-c2cccc(C(F)(F)F)c2)c2sc(C(=N)NC3CCS(=O)(=O)CC3)cc2c1=O`, the viability at 10 µM was found to be 54.2%.
Consider `O=C(NCC1(c2nc(-c3ccccc3)cs2)CCOCC1)c1cccc(-c2noc(C(F)(F)F)n2)c1`, for which the viability at 10 µM amounted to 54.2%.
Then `Nc1nccc2c1ncn2[C@@H]1C=C(CO)[C@@H](O)[C@H]1O`, with 54.2%.
With `COc1cc2c(cc1OCCCN1CCCC1)N=C(N)C21CCC1` the figure was 54.2%; with `COc1ccc(-c2nc(N3CCOCC3)c3sc(CN(C)c4ncc(C(=O)NO)cn4)cc3n2)cn1` [FIMEPINOSTAT], 54.2%; with `O=C(Nc1ccccc1-c1cn2c(CN3CCNCC3)csc2n1)c1cnc2ccccc2n1`, 54.2%.
Regarding `N#CCNC(=O)c1ccc(-c2ccnc(Nc3ccc(N4CCOCC4)cc3)n2)cc1` [MOMELOTINIB], the viability at 10 µM is 54.2%.
With `O=C(Nc1ccc(-c2ccnc(Nc3ccc(N4CCOCC4)cc3)n2)cc1)[C@@H]1CCCN1` the figure was 54.2%; with `CCn1c2ccccc2c2cc(CNCc3ccccc3OC)ccc21`, 54.2%; with `CCN(CC)Cc1ccc2cc(COC(=O)Nc3ccc(C(=O)NO)cc3)ccc2c1` [GIVINOSTAT], 54.2%.
As for `CCN(CC)CCNC(=O)c1ccc(N)cc1` [PROCAINAMIDE HYDROCHLORIDE], the viability at 10 µM is 54.2%.
Then `CCOC(=O)CCNc1cc(N2CCc3ccccc3CC2)nc(-c2ccccn2)n1`, with 54.2%.
Then `Cc1cc(Nc2nc(N[C@@H](C)c3ncc(F)cn3)ncc2Cl)[nH]n1` [AZD-1480], with 54.2%; and `O=C1NC(=O)/C(=C/c2cccc(C(F)(F)F)c2)S1`, with 54.2%.
`O=C(CCCCCN1C(=O)c2cccc3cccc(c23)C1=O)NO`: the viability at 10 µM was 54.2%.
On to `COc1cc2c(cc1NS(=O)(=O)c1ccc(Br)cc1C)n(C)c(=O)n2C`, for which the viability at 10 µM came out at 54.2%.
Regarding `CCCCCCCCCC(=O)N[C@@H](Cc1c[nH]c2ccccc12)C(=O)N[C@H](CC(N)=O)C(=O)N[C@@H](CC(=O)O)C(=O)N[C@@H]1C(=O)NCC(=O)N[C@@H](CCCN)C(=O)N[C@@H](CC(=O)O)C(=O)N[C@H](C)C(=O)N[C@@H](CC(=O)O)C(=O)NCC(=O)N[C@H](CO)C(=O)N[C@@H]([C@H](C)CC(=O)O)C(=O)N[C@@H](CC(=O)c2ccccc2N)C(=O)O[C@@H]1C`, the viability at 10 µM was determined as 54.2%.
Then `O=C(O)CCCc1ccccc1` [SODIUM PHENYLBUTYRATE], with 54.2%; and `O=c1ncccn1[C@@H]1O[C@H](CO)[C@@H](O)[C@H]1O` [ZEBULARINE], with 54.2%.
